Source: US11000033B2, “Ketone or oxime compound, and herbicide” (NISSAN CHEMICAL CORPORATION, priority 2014, dated 2021)

Columns and labels:
Format in all cases: in vivo
Scirpus juncoides = assay: Test Example 1: herbicidal activity, application before weed generation in submerged conditions (symbol B); settings: application herbicide amount 320 g/ha
Summary of the method: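 Weed control was rated three weeks after treatment on a 0–5 scale, from 5% or lower up to 90% or more. Pre-emergence water-surface application of diluted emulsion at a predetermined rate was made on the day of sowing, in flooded (4 cm water) pots containing rice seedlings, kept at 25–30 °C under glass.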

Monochoria vaginalis = assay: Test Example 2: herbicidal activity, application during weed generation in submerged conditions (symbol C); settings: Table 23; application herbicide amount 320 g/ha; grade 0-5 by criteria of Test Example 1
Summary of the method: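 Paddy pot test, submerged (4 cm water), alluvial soil, mixed sowing; greenhouse 25–30° C. Emulsion formulation diluted to predetermined rate, applied onto floodwater at 1–2 leaf stage. Visual herbicidal rating at 3 wk post-treatment.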

rice = assay: Test Example 4: effect on crop by soil treatment (symbol b); settings: for b: directly sowed rice plant, effect grade on crop: 320 g/ha; for b (directly sowed rice plant) effect on crop grade: application herbicide amount 320 g/ha
Summary of the method: (§1)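 Sterilized diluvial soil, spot sowing, ~1.5 cm soil cover; greenhouse 25–30° C.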

wheat = assay: Test Example 4: effect on crop by soil treatment (symbol e); settings: for e: wheat, effect grade on crop: 320 g/ha; for e (wheat) effect on crop grade: application herbicide amount 320 g/ha
Summary of the method: as §1

transplanted rice plant = assay: Test Example 1: effect on crop, application before weed generation in submerged conditions (symbol a); settings: application herbicide amount 320 g/ha
Summary of the method: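 Rice at 2.5 leaf stage transplanted into submerged soil (4 cm depth) sown with three weed species; herbicide applied before weed emergence.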

Digitaria ciliaris = assay: Test Example 5: herbicidal effect by foliage application, plastic box (symbol F); settings: 320 g/ha, 3 weeks after application
Summary of the method: (§2)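 Greenhouse foliar test: seedlings at 14 days, grown 25° C. to 30° C. in sterilized diluvial soil; compound applied as an aqueous dilution of an emulsion; response read 3 weeks after spraying.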

Lolium multiflorum Lam. = assay: Test Example 4: herbicidal effect by soil treatment (symbol K); settings: for K: Lolium multiflorum Lam., herbicidal effect grade: 320 g/ha; for K (Lolium multiflorum Lam.) herbicidal effect grade: application herbicide amount 320 g/ha
Summary of the method: (§3)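 Seeds were sown in sterilized diluvial soil, covered with about 1.5 cm of soil, and the soil surface was sprayed with a water-diluted emulsion of the compound at a predetermined rate. Plants grew in a greenhouse at 25° C. to 30° C.; effects were scored visually 3 weeks after application.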

rapeseed = assay: Test Example 5: effect on crop by foliage application, plastic box (symbol g); settings: 320 g/ha, 3 weeks after application
Summary of the method: (§4)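 Sterilized diluvial soil, plastic box (21 × 13 × 7 cm); spot sowing, ~1.5 cm soil cover; greenhouse 25–30° C.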

corn = assay: Test Example 5: effect on crop by foliage application, plastic box (symbol c); settings: 320 g/ha, 3 weeks after application
Summary of the method: as §4

soybean = assay: Test Example 4: effect on crop by soil treatment (symbol d); settings: for d: soybean, effect grade on crop: 320 g/ha; for d (soybean) effect on crop grade: application herbicide amount 320 g/ha
Summary of the method: as §1

[1] = tested on: Echinochloa crus-galli var. crus-galli; assay: Test Example 5: herbicidal effect by foliage application, plastic box (symbol H); settings: 320 g/ha, 3 weeks after application
Summary of the method: as §2

Alopecurus myosuroides [2] = assay: Test Example 5: herbicidal effect by foliage application, plastic box (symbol J); settings: 320 g/ha, 3 weeks after application
Summary of the method: as §2

Alopecurus myosuroides [3] = assay: Test Example 4: herbicidal effect by soil treatment (symbol J); settings: for J: Alopecurus myosuroides, herbicidal effect grade: 320 g/ha; for J (Alopecurus myosuroides) herbicidal effect grade: application herbicide amount 320 g/ha
Summary of the method: as §3

Galium spurium = assay: Test Example 5: herbicidal effect by foliage application, plastic box (symbol Q); settings: 320 g/ha, 3 weeks after application
Summary of the method: as §2

| Structure (SMILES) | Herbicidal effect grade, B: Scirpus juncoides (Scirpus juncoides) | Herbicidal effect grade, C: Monochoria vaginalis (Monochoria vaginalis) | b: directly sowed rice plant, effect grade on crop (rice) | e: wheat, effect grade on crop (wheat) | Effect grade on crop, a: transplanted rice plant (transplanted rice plant) | F: Digitaria ciliaris, herbicidal effect (criteria 0-5) (Digitaria ciliaris) | K: Lolium multiflorum Lam., herbicidal effect grade (Lolium multiflorum Lam.) | g: rapeseed, effect on crop (criteria 0-5) (rapeseed) | c: corn, effect on crop (criteria 0-5) (corn) | b (directly sowed rice plant) effect on crop grade (rice) | e (wheat) effect on crop grade (wheat) | F: Digitaria ciliaris, herbicidal effect grade (Digitaria ciliaris) | K (Lolium multiflorum Lam.) herbicidal effect grade (Lolium multiflorum Lam.) | g: rapeseed, effect on crop grade (rapeseed) | c: corn, effect on crop grade (corn) | d (soybean) effect on crop grade (soybean) | H: Echinochloa crus-galli var. crus-galli, herbicidal effect grade [1] | J: Alopecurus myosuroides, herbicidal effect grade (Alopecurus myosuroides [2]) | J (Alopecurus myosuroides) herbicidal effect grade (Alopecurus myosuroides [3]) | Q: Galium spurium, herbicidal effect grade (Galium spurium) | other results |
| --- | --- | --- | --- | --- | --- | --- | --- | --- | --- | --- | --- | --- | --- | --- | --- | --- | --- | --- | --- | --- | --- |
| CON=C(CC1CC(O)=C(c2c(C)cc(C)cc2C)C1=O)C1CCCC1 (stereo not shown) [1-078] | 2 (Herbicidal ratio of 20% or higher and lower than 40%) | 0 (Herbicidal ratio of 5% or lower (almost no effect)) | 5 (Herbicidal ratio of 90% or more (almost completely withered)) | 0 (Herbicidal ratio of 5% or lower (almost no effect)) | 5 (Herbicidal ratio of 90% or more (almost completely withered)) | 1 (Herbicidal ratio of 5% or higher and lower than 20%) | 5 (Herbicidal ratio of 90% or more (almost completely withered)) | 3 (Herbicidal ratio of 40% or higher and lower than 70%) | 3 (Herbicidal ratio of 40% or higher and lower than 70%) |  |  |  |  |  |  |  |  |  |  |  | d: soybean, effect grade on crop (soybean): 0 (Herbicidal ratio of 5% or lower (almost no effect)); H: Echinochloa crus-galli var. crus-galli, herbicidal effect (criteria 0-5) [1]: 5 (Herbicidal ratio of 90% or more (almost completely withered)); J: Alopecurus myosuroides, herbicidal effect (criteria 0-5) (Alopecurus myosuroides [2]): 4 (Herbicidal ratio of 70% or higher and lower than 90%); J: Alopecurus myosuroides, herbicidal effect grade (Alopecurus myosuroides [3]): 3 (Herbicidal ratio of 40% or higher and lower than 70%); Q: Galium spurium, herbicidal effect (criteria 0-5) (Galium spurium): 0 (Herbicidal ratio of 5% or lower (almost no effect)) |
| CON=C(C)CC1CC(OC(=O)C2(C)CC2(Cl)Cl)=C(c2c(C)cc(C)cc2C)C1=O (stereo not shown) [1-036] | 4 (Herbicidal ratio of 70% or higher and lower than 90%) | 2 (Herbicidal ratio of 20% or higher and lower than 40%) |  |  | 5 (Herbicidal ratio of 90% or more (almost completely withered)) |  |  |  |  | 5 (Herbicidal ratio of 90% or more (almost completely withered)) | 3 (Herbicidal ratio of 40% or higher and lower than 70%) | 5 (Herbicidal ratio of 90% or more (almost completely withered)) | 5 (Herbicidal ratio of 90% or more (almost completely withered)) | 4 (Herbicidal ratio of 70% or higher and lower than 90%) | 1 (Herbicidal ratio of 5% or higher and lower than 20%) | 0 (Herbicidal ratio of 5% or lower (almost no effect)) | 5 (Herbicidal ratio of 90% or more (almost completely withered)) | 5 (Herbicidal ratio of 90% or more (almost completely withered)) | 5 (Herbicidal ratio of 90% or more (almost completely withered)) | 0 (Herbicidal ratio of 5% or lower (almost no effect)) |  |
| CC(CC1CC(O)=C(c2c(C)cc(C)cc2C)C1=O)=NOCC(=O)N1CCOCC1 (stereo not shown) [1-025] | 2 (Herbicidal ratio of 20% or higher and lower than 40%) | 0 (Herbicidal ratio of 5% or lower (almost no effect)) |  |  | 3 (Herbicidal ratio of 40% or higher and lower than 70%) |  |  |  |  | 5 (Herbicidal ratio of 90% or more (almost completely withered)) | 0 (Herbicidal ratio of 5% or lower (almost no effect)) | 5 (Herbicidal ratio of 90% or more (almost completely withered)) | 5 (Herbicidal ratio of 90% or more (almost completely withered)) | 4 (Herbicidal ratio of 70% or higher and lower than 90%) | 3 (Herbicidal ratio of 40% or higher and lower than 70%) | 0 (Herbicidal ratio of 5% or lower (almost no effect)) | 4 (Herbicidal ratio of 70% or higher and lower than 90%) | 5 (Herbicidal ratio of 90% or more (almost completely withered)) | 4 (Herbicidal ratio of 70% or higher and lower than 90%) | 4 (Herbicidal ratio of 70% or higher and lower than 90%) |  |
| CON=C(C)CC1CC(OC(=O)C2=CCCC2)=C(c2c(C)cc(C)cc2C)C1=O (stereo not shown) [1-088] | 5 (Herbicidal ratio of 90% or more (almost completely withered)) | 3 (Herbicidal ratio of 40% or higher and lower than 70%) | 5 (Herbicidal ratio of 90% or more (almost completely withered)) | 3 (Herbicidal ratio of 40% or higher and lower than 70%) | 5 (Herbicidal ratio of 90% or more (almost completely withered)) | 5 (Herbicidal ratio of 90% or more (almost completely withered)) | 5 (Herbicidal ratio of 90% or more (almost completely withered)) | 4 (Herbicidal ratio of 70% or higher and lower than 90%) | 5 (Herbicidal ratio of 90% or more (almost completely withered)) |  |  |  |  |  |  |  |  |  |  |  | d: soybean, effect grade on crop (soybean): 0 (Herbicidal ratio of 5% or lower (almost no effect)); H: Echinochloa crus-galli var. crus-galli, herbicidal effect (criteria 0-5) [1]: 5 (Herbicidal ratio of 90% or more (almost completely withered)); J: Alopecurus myosuroides, herbicidal effect (criteria 0-5) (Alopecurus myosuroides [2]): 5 (Herbicidal ratio of 90% or more (almost completely withered)); J: Alopecurus myosuroides, herbicidal effect grade (Alopecurus myosuroides [3]): 5 (Herbicidal ratio of 90% or more (almost completely withered)); Q: Galium spurium, herbicidal effect (criteria 0-5) (Galium spurium): 0 (Herbicidal ratio of 5% or lower (almost no effect)) |
| CON=C(CC1CC(O)=C(c2c(C)cc(C)cc2C)C1=O)c1ccccc1 (stereo not shown) [1-047] | 0 (Herbicidal ratio of 5% or lower (almost no effect)) | 0 (Herbicidal ratio of 5% or lower (almost no effect)) |  |  | 1 (Herbicidal ratio of 5% or higher and lower than 20%) |  |  |  |  | 4 (Herbicidal ratio of 70% or higher and lower than 90%) | 0 (Herbicidal ratio of 5% or lower (almost no effect)) | 1 (Herbicidal ratio of 5% or higher and lower than 20%) | 3 (Herbicidal ratio of 40% or higher and lower than 70%) | 3 (Herbicidal ratio of 40% or higher and lower than 70%) | 0 (Herbicidal ratio of 5% or lower (almost no effect)) | 0 (Herbicidal ratio of 5% or lower (almost no effect)) | 3 (Herbicidal ratio of 40% or higher and lower than 70%) | 3 (Herbicidal ratio of 40% or higher and lower than 70%) | 0 (Herbicidal ratio of 5% or lower (almost no effect)) | 0 (Herbicidal ratio of 5% or lower (almost no effect)) |  |
